Data taken from PMC6807911, “A structure-based approach towards the identification of novel antichagasic compounds: Trypanosoma cruzi carbonic anhydrase inhibitors” (Journal of Enzyme Inhibition and Medicinal Chemistry, 2019).

Target: T1, TcCA (Trypanosoma cruzi carbonic anhydrase) (Trypanosoma cruzi, UniProt Q4CVY4)
T1 construct: gene Tc00.1047053509597.20
T1 sequence (Q4CVY4 39-638): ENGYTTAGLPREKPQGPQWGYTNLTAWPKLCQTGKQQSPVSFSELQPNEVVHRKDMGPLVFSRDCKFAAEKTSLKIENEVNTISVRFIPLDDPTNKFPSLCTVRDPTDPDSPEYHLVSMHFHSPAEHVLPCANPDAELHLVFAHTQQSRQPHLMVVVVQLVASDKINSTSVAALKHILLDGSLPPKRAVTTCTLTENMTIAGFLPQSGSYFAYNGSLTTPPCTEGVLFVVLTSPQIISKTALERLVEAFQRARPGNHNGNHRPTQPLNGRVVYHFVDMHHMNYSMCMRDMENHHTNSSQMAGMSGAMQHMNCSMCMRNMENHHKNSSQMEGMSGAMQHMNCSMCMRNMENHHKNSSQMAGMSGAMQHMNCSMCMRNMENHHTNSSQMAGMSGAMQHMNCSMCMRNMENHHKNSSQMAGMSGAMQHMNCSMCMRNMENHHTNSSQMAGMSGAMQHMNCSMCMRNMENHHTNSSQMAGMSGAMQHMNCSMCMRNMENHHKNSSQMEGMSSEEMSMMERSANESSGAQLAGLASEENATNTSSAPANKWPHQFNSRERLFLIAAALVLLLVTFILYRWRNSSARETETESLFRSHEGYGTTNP
Assay: stopped-flow CO2 hydration assay
Type: biochemical
Conditions: read-out: KITcCA
Source text: stopped-flow CO2 hydration assay on TcCA (Trypanosoma cruzi carbonic anhydrase)

Structure (SMILES) | Ki
CC1=CC(=O)NS(=O)(=O)O1 [Acesulphame] | 2240 nM
O=S(=O)(O)NC1CCCCC1 [Sodium cyclamate] | 348 nM
COC(=O)[C@H](Cc1ccccc1)NS(=O)(=O)NCC(C)C [compound 5, 5] | 261 nM
COC(=O)CCNS(=O)(=O)NCCc1ccccc1 [compound 7, 7] | 7250 nM
